We go through 4 compounds from patent publication US9809623B2, “α4β7 peptide monomer and dimer antagonists” (Protagonist Therapeutics, Inc., priority 2014, dated 2017).

pIC50: −log10 of the molar value. Numbered stars: 1 amine (or outer) side, 2 acyl side, 3 side chain; on linkers, the order of the positions; unused ones are H or OH. Bridge positions count the residues as written; N and C are the ends. Square brackets hold non-standard residues; d marks the D form. Peptide text beside a SMILES is read from it. I, II: the chains in the order shown. Phe(4-COOH) = N[C@@H](Cc1ccc(C(=O)O)cc1)C(=O)O; Phe(4-tBu) = CC(C)(C)c1ccc(C[C@H](N)C(=O)O)cc1; Diglycolyl = O=C(COCC(=O)[*:2])[*:1]; NMeR = CN[C@@H](CCCNC(=N)N)C(=O)O; β3hE = N[C@@H](CCC(=O)O)CC(=O)O; NMeK = CN[C@@H](CCCCN)C(=O)O; Pen = CC(C)(S)[C@H](N)C(=O)O

Test [1] deals with T1, α4β7 (Mus musculus, UniProt P26011+Q00651).
T1 construct: host or cells: TK1 mouse T cells
Nature of the test: α4β7 Cell Adhesion Assay (Mouse), TK1 cells. It is filed as cell-based. The note with it: Table 3-B, Potency (α4β7); range classes; read-out: α4β7 cell(MU) IC50. The procedure, abridged:
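Mouse TK1 cells in DMEM with 0.1% BSA, 10 mM HEPES pH 7 and 1 mM MnCl2 were allowed to adhere for 30-45 min at 37 °C to plates coated with recombinant human MAdCAM-1 Fc (200 ng/well) in the presence of serially diluted peptides. Adherent cells were quantified by MTT absorbance at 570 nm, with no-cell background subtracted for dose response.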

In test [2] the target is α4β7 (Homo sapiens, UniProt P13612+P26010). Nature of the test: PBMC Memory T Cell Adhesion Assay, adhesion to MAdCAM-1. It is filed as cell-based. As to conditions: Table 3-B; range classes; read-out: PBMC IC50. As to the method: Fresh CD4+/CD45RO+ memory T cells were isolated from human peripheral blood mononuclear cell (PBMC) donors by Aragen Bioscience Inc. (Morgan Hill, Calif.). The assay plate was prepared using IgG Fc capture antibody (donkey anti human) immobilized at 500 ng/well in 50 mM sodium bicarbonate buffer, pH 9.5, ON, 4C onto a Greiner Fluotrac plate (100 ul per well). The plate was rinsed two time with Blocking Buffer (25 mM Tris HCl, pH7.5, 150 mM NaCl, 1.5% BSA, 0.05% Tween), and blocked with Blocking Buffer for 2 hours at 37 C or 5 hours at RT using 200 ul per well. The Blocking Buffer was removed and either MAdCAM-1 or VCAM-1 at 400 ng/well in Blocking Buffer was added and the plate incubated overnight at 4C (100 ul per well). The plate was washed two times with Blocking Buffer, and rinsed once with 200 ul Binding Media (DMEM phenol red free, 10 mM HEPES, 1×Na pyruvate, 1× Glutamine, and supplemented with 1 mM MnCl2 prior to use). To prepare cells, approximately 25 million CD4+/CD45RO+ memory T cells were counted by trypan blue exclusion using a haemocytometer to determine viability and cell count. The cells were transferred to a 50 ml conical tube, and centrifuged at 1200 rpm for 10 minute. The media was aspirated and the cell pellet resuspended in 15 ml Binding Media. The cells were centrifuged again and resuspended in the appropriate amount of Binding Media to be used for assays (50 ul of cells per well at 2× the final density). To each well, and equal volume (50 ul) of test compound was added and the plate was incubated for 1.5 hours at 37 C, 5% CO2. Each well was rinsed 3× with 150 ul per well of Binding Media. […] The plate was incubated at 37 C, 5% CO2, for 45 minutes. The plate was protected from light by using black adhesive seals. Fluorescence intensity was measured using a Molecular Devices Gemini EM Fluorescent Plate Reader (Ex 485/Em530, Bottom Read, Reading Sensitivity=20). IC50 curves are generated using Graph Pad Prism and the curves analyzed using analyzed using a non-linear regression (four parameters) algorithm. The log (concentration) versus RFU (Ex485/Em530) was plotted to determine IC50 values.
Chain of α4β7 (Homo sapiens, UniProt P13612+P26010) (P13612 34-1032): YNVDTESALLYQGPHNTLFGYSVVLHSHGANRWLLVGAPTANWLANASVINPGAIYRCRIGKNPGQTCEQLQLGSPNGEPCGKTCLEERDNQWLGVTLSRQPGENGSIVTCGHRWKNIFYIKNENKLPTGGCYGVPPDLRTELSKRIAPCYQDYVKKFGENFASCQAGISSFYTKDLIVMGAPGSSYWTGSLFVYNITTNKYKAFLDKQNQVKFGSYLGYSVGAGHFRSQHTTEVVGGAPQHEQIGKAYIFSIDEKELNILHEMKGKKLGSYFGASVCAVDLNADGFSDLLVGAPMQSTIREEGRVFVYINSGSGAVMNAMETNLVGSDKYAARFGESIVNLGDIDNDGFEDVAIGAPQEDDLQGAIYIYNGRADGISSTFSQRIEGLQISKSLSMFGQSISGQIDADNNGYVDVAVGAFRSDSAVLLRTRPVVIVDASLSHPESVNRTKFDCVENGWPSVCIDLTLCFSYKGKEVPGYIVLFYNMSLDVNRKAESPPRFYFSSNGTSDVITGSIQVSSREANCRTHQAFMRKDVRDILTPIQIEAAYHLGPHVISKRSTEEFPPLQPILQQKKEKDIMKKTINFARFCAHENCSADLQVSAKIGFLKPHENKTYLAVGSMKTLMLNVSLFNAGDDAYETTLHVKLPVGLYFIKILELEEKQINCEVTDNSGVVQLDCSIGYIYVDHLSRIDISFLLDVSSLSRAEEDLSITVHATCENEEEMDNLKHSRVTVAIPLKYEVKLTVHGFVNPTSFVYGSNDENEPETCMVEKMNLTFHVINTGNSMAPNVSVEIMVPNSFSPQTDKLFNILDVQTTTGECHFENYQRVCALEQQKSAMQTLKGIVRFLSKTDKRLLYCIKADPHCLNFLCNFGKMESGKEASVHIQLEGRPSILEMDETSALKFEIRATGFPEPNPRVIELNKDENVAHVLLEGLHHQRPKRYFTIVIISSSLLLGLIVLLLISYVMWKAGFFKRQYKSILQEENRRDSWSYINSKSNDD
Chain of α4β7 (Homo sapiens, UniProt P13612+P26010) (P26010 20-798): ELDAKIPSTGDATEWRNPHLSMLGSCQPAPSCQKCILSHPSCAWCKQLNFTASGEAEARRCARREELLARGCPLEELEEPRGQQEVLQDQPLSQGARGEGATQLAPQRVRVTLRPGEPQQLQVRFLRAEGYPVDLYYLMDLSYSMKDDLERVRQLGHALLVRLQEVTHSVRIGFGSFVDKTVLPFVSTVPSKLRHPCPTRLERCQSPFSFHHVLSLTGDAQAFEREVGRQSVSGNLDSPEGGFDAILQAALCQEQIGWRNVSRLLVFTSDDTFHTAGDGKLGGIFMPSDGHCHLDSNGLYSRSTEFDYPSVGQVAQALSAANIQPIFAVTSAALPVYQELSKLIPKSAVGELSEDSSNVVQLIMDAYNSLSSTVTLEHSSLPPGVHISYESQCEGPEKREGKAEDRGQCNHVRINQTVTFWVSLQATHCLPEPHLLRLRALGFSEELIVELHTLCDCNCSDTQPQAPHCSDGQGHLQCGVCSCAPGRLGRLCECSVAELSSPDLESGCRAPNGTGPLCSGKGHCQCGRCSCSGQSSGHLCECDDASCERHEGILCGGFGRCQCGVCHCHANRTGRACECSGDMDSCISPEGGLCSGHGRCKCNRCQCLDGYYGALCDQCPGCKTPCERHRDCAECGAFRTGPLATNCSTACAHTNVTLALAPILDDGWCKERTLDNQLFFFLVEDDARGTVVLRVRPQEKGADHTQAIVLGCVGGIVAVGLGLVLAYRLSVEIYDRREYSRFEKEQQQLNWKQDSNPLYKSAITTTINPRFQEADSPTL

T1 sequence (Q00651 34-1039 limits assumed): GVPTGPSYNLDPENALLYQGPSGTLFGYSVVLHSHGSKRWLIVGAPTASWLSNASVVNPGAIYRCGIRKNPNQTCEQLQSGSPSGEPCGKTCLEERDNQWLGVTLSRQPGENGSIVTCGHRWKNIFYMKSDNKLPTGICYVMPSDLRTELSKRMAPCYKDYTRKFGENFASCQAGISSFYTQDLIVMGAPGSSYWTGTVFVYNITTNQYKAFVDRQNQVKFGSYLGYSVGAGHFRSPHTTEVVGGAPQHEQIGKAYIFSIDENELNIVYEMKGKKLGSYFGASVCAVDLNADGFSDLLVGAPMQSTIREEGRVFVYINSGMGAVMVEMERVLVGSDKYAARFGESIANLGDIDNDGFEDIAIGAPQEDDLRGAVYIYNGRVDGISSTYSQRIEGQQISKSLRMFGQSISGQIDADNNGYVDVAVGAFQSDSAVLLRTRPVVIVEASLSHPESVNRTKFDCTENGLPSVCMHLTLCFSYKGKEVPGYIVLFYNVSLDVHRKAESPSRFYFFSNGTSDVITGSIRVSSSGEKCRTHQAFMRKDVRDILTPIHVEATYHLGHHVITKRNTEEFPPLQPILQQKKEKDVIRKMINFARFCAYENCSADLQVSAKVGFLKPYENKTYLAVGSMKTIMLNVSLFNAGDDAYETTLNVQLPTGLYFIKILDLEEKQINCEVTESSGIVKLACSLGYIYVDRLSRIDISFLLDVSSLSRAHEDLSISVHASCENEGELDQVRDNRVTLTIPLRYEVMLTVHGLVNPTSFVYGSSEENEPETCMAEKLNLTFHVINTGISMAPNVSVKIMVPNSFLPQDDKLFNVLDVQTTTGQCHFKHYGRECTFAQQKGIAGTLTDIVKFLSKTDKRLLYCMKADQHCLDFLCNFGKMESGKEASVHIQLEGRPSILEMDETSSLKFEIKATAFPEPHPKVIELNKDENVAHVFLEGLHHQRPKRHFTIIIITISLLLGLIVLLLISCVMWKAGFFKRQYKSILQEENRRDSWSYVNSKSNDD
T1 sequence (P26011 20-806): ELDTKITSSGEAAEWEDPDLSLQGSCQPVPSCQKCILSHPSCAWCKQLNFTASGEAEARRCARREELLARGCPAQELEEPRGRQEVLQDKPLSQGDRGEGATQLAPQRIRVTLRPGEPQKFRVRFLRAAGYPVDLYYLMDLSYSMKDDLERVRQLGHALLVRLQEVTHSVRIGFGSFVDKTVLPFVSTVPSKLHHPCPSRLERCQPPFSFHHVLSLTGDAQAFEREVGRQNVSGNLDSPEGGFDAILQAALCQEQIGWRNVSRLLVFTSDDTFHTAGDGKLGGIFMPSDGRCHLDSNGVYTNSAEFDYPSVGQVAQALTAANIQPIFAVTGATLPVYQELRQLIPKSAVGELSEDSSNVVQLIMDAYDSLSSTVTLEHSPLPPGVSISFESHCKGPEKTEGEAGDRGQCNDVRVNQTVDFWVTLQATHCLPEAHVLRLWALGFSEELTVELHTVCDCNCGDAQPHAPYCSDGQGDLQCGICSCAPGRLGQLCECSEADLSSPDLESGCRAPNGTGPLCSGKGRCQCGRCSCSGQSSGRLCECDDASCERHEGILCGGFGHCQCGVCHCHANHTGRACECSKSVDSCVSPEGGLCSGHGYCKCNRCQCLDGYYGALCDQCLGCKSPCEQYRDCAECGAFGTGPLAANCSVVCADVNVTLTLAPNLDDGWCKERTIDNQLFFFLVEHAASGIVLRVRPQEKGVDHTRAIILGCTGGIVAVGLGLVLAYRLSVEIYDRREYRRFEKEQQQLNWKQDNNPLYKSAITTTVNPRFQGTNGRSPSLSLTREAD

As for `CC(=O)N[C@@H]1C(=O)N(C)[C@@H](CCCNC(=N)N)C(=O)N[C@@H](CO)C(=O)N[C@@H](CC(=O)O)C(=O)N[C@@H]([C@@H](C)O)C(=O)N[C@@H](CC(C)C)C(=O)N[C@H](C(=O)N[C@@H](Cc2ccc(C(C)(C)C)cc2)C(=O)N[C@@H](CCC(=O)O)CC(=O)N[C@H](CCCCNC(=O)COCC(=O)NCCCC[C@@H](NC(=O)C[C@H](CCC(=O)O)NC(=O)[C@H](Cc2ccc(C(C)(C)C)cc2)NC(=O)[C@H]2NC(=O)[C@H](CC(C)C)NC(=O)[C@H]([C@@H](C)O)NC(=O)[C@H](CC(=O)O)NC(=O)[C@H](CO)NC(=O)[C@H](CCCNC(=N)N)N(C)C(=O)[C@@H](NC(C)=O)C(C)(C)SSC2(C)C)C(N)=O)C(N)=O)C(C)(C)SSC1(C)C` [compound 132] (I: Ac-[Pen][NMeR]SDTL[Pen][Phe(4-tBu)][β3hE][dK]-NH2 / II: Ac-[Pen][NMeR]SDTL[Pen][Phe(4-tBu)][β3hE][dK]-NH2; disulfide I:1-I:7, II:1-II:7; linker I:10-II:10 via Diglycolyl), the pIC50 in test [1] and in test [2] was over 8.00 in each case.
Turning to `CC(=O)N[C@@H]1C(=O)N(C)[C@@H](CCCNC(=N)N)C(=O)N[C@@H](CO)C(=O)N[C@@H](CC(=O)O)C(=O)N[C@@H]([C@@H](C)O)C(=O)N[C@@H](CC(C)C)C(=O)N[C@H](C(=O)N[C@@H](Cc2ccc(C(=O)O)cc2)C(=O)N[C@@H](CCC(=O)O)C(=O)N(C)[C@@H](CCCCNC(=O)COCC(=O)NCCCC[C@@H](C(N)=O)N(C)C(=O)[C@H](CCC(=O)O)NC(=O)[C@H](Cc2ccc(C(=O)O)cc2)NC(=O)[C@H]2NC(=O)[C@H](CC(C)C)NC(=O)[C@H]([C@@H](C)O)NC(=O)[C@H](CC(=O)O)NC(=O)[C@H](CO)NC(=O)[C@H](CCCNC(=N)N)N(C)C(=O)[C@@H](NC(C)=O)C(C)(C)SSC2(C)C)C(N)=O)C(C)(C)SSC1(C)C` [compound 147] (I: Ac-[Pen][NMeR]SDTL[Pen][Phe(4-COOH)]E[NMeK]-NH2 / II: Ac-[Pen][NMeR]SDTL[Pen][Phe(4-COOH)]E[NMeK]-NH2; disulfide I:1-I:7, II:1-II:7; linker I:10-II:10 via Diglycolyl), the pIC50 in test [1] and in test [2] was over 8.00 in each case.
Consider `CC(=O)N[C@@H]1C(=O)N(C)[C@@H](CCCNC(=N)N)C(=O)N[C@@H](CO)C(=O)N[C@@H](CC(=O)O)C(=O)N[C@@H]([C@@H](C)O)C(=O)N[C@@H](CC(C)C)C(=O)N[C@H](C(=O)N[C@@H](Cc2ccc(C(C)(C)C)cc2)C(=O)N[C@@H](CCC(=O)O)CC(=O)N(C)[C@@H](CCCCNC(=O)COCC(=O)NCCCC[C@@H](C(N)=O)N(C)C(=O)C[C@H](CCC(=O)O)NC(=O)[C@H](Cc2ccc(C(C)(C)C)cc2)NC(=O)[C@H]2NC(=O)[C@H](CC(C)C)NC(=O)[C@H]([C@@H](C)O)NC(=O)[C@H](CC(=O)O)NC(=O)[C@H](CO)NC(=O)[C@H](CCCNC(=N)N)N(C)C(=O)[C@@H](NC(C)=O)C(C)(C)SSC2(C)C)C(N)=O)C(C)(C)SSC1(C)C` [compound 149] (I: Ac-[Pen][NMeR]SDTL[Pen][Phe(4-tBu)][β3hE][NMeK]-NH2 / II: Ac-[Pen][NMeR]SDTL[Pen][Phe(4-tBu)][β3hE][NMeK]-NH2; disulfide I:1-I:7, II:1-II:7; linker I:10-II:10 via Diglycolyl), for which the pIC50 in test [1] and in test [2] was over 8.00 in each case.
Regarding `CC(=O)N[C@@H]1C(=O)N(C)[C@@H](CCCNC(=N)N)C(=O)N[C@@H](CO)C(=O)N[C@@H](CC(=O)O)C(=O)N[C@@H]([C@@H](C)O)C(=O)N[C@@H](CC(C)C)C(=O)N[C@H](C(=O)N[C@@H](Cc2ccc(C(C)(C)C)cc2)C(=O)N[C@@H](CCC(=O)O)CC(=O)O)C(C)(C)SSC1(C)C` [compound 152] (Ac-[Pen][NMeR]SDTL[Pen][Phe(4-tBu)][β3hE]-OH; disulfide 1-7), the negative logarithm of the IC50 (pIC50) (commonly the negative decadic logarithm of the IC50, by convention in mol/L) in test [1] is over 8.00; in test [2], 7.30 to 7.60.
